# Target: T1, PDK1 kinase (Homo sapiens, UniProt O15530)
# T1 construct: 6x Histidine tag (TEV-cleavable) (cleaved yes); made in house; host or cells: Sf9 insect cells
# T1 sequence (O15530 1-556): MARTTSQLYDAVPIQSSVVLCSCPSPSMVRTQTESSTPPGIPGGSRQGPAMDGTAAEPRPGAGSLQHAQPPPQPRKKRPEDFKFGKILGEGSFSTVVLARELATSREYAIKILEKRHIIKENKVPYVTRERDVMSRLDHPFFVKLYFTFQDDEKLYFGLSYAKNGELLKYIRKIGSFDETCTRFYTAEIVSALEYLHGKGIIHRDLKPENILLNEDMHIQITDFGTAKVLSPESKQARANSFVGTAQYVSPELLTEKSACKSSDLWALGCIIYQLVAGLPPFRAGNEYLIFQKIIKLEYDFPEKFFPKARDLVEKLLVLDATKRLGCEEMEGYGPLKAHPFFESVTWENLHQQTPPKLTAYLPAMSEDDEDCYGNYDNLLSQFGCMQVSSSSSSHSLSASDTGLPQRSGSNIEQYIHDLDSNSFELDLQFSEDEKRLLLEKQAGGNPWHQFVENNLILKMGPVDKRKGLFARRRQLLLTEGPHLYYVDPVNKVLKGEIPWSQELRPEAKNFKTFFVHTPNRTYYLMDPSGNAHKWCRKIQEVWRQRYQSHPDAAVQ
# Test: PDK1 Bioassay (luminescence-based enzyme assay, Kinase-Glo)
# Type: biochemical
# Conditions: 5 μM ATP
# From the text: In addition to the c-Abl PK/LDH coupled assay (above), homogeneous luminescence-based inhibitor screening assays were developed for c-Abl, MET, AurA, and PDK1 kinases (among others). Each of these assays made use of an ATP depletion assay (Kinase-Glo™, Promega Corporation, Madison, Wis.) to quantitate kinase activity. The Kinase-Glo™ format uses a thermostable luciferase to generate luminescent signal from ATP remaining in solution following the kinase reaction. The luminescent signal is inversely correlated with the amount of kinase activity.
# Materials: PDKtide peptide substrate=KTFCGTPEYLAPEVRREPRJLSEEEQEMFRDFDYIADWC (SEQ ID NO:3) (Upstate Cat#12-401), ATP (Sigma Cat#A-3377, FW=551), HEPES buffer, pH 7.5, 10% Brij 35 (Calbiochem Cat#203728), MgCl2, Staurosporine (Streptomyces sp. Sigma Cat#85660-1MG), white Costar 384-well flat-bottom plate (VWR Cat#29444-088), PDK1 kinase (see below), Kinase-Glo™ (Promega Cat#V6712).
# Stock Solutions: 1 mM PDKtide substrate (1 mg in 200 μl, as supplied by Upstate), stored at −20° C.; 100 mM HEPES buffer, pH 7.5 (5 ml 1M HEPES stock+45 ml miliQH2O); 10 mM ATP (5.51 mg/ml in dH2O) stored at −20° C. (diluted 25 μl into total of 10 ml miliQH2O daily=25 μM ATP working stock); 100 mM MgCl2; 10% Brij 35 stored at 2-8° C.; 200 μM Staurosporine, 2× Kinase-Glo™ reagent (made fresh or stored at −20° C.).
# Standard Assay Setup for 384-well format (20 μl kinase reaction, 40 μl detection reaction): 10 mM MgCl2; 0.01 mM PDKtide; 1 μl test compound (in DMSO); 0.1 μg/ml PDK1 kinase; 5 μM ATP; 10 mM MgCl2; 100 mM HEPES+0.01% Brij buffer. Positive controls contained DMSO with no test compound. Negative controls contained 10 μM staurosporine. The kinase reactions were initiated at time t=0 by the addition of ATP. Kinase reactions were incubated at 21° C. for 40 min, then 20 μl of Kinase-Glo™ reagent were added to each well to quench the kinase reaction and initiate the luminescence reaction. After a 20 min incubation at 21° C., the luminescence was detected in a plate-reading luminometer.
# Cell pellets produced from 6 L of Sf9 insect cells expressing human PDK1 were resuspended in a buffer containing 50 mM Tris-HCl pH 7.7 and 250 mM NaCl in a volume of approximately 40 mL per 1 L of original culture. One tablet of Roche Complete, EDTA-free protease inhibitor cocktail (Cat# 1873580) and 85 units Benzonase (Novagen Cat#70746-3)) were added per 1 L of original culture. The suspension was stirred for 1 hour at 4° C. Debris was removed by centrifugation for 30 minutes at 39,800×g at 4° C. The supernatant was decanted into a 500 mL beaker and 10 ml of a 50% slurry of Qiagen Ni-NTA Agarose (Cat#30250) that had been pre-equilibrated in 50 mM Tris-HCl pH 7.8, 500 mM NaCl, 10% Glycerol, 10 mM Imidazole, and 10 mM Methionine, were added and stirred for 30 minutes at 4° C. The sample was then poured into a drip column at 4° C. and washed with 10 column volumes of 50 mM Tris-HCl pH 7.8, 500 mM NaCl, 10% Glycerol, 10 mM Imidazole, and 10 mM Methionine. The protein was eluted using a step gradient with two column volumes each of the same buffer containing 50 mM, and 500 mM Imidazole, sequentially. The 6×Histidine tag was cleaved overnight using 40 units of TEV protease (Invitrogen Cat#10127017) per 1 mg of protein while dialyzing in 50 mM Tris-HCl pH 7.8, 500 mM NaCl, 10% Glycerol, 10 mM Imidazole, and 10 mM Methionine at 4° C. The 6× Histidine tag was removed by passing the sample over a Pharmacia 5 ml IMAC column (Cat# 17-0409-01) charged with Nickel and equilibrated in 50 mM Tris-HCl pH 7.8, 500 mM NaCl, 10% Glycerol, 10 mM Imidazole, and 10 mM Methionine. The cleaved protein eluted in the flow-through, whereas the uncleaved protein and the His-tag remained bound to the Ni-column. The cleaved protein fractions were combined and concentrated using spin concentrators. […]
row,IC50,SMILES
1,1000 to 5000 nM,CNC(=O)c1cc(-c2cnc3[nH]cc(-c4ccccc4OC)c3c2)cs1 [AE2]
2,1000 to 5000 nM,COc1ccccc1-c1c[nH]c2ncc(-c3csc(C(=O)N(C)C)c3)cc12 [AE3]
3,1000 to 5000 nM,COc1ccccc1-c1c[nH]c2ncc(-c3cc[nH]c(=O)c3)cc12 [AE9]
4,1000 to 5000 nM,COc1ccccc1-c1c[nH]c2ncc(-c3ccc4[nH]cc(CC(=O)O)c4c3)cc12 [AE10]
5,1000 to 5000 nM,COc1ccccc1-c1c[nH]c2ncc(-c3ccc(S(N)(=O)=O)s3)cc12 [AE11]
6,1000 to 5000 nM,N#Cc1cc(-c2cnc3[nH]cc(-c4ccc5[nH]ccc5c4)c3c2)ccc1O [AE20]
7,1000 to 5000 nM,COc1ccccc1-c1c[nH]c2ncc(-c3ccc(S(N)(=O)=O)cc3)cc12 [AE21]
8,1000 to 5000 nM,Oc1cccc(-c2cnc3[nH]cc(-c4ccc(O)c(F)c4)c3c2)c1 [AE48]
9,1000 to 5000 nM,Oc1cccc(-c2cnc3[nH]cc(-c4ccn[nH]4)c3c2)c1 [AE49]
10,< 1000 nM,Nc1nc(-c2c[nH]c3ncc(-c4ccc5[nH]ccc5c4)cc23)cs1 [AE55]
11,< 1000 nM,COc1cc(-c2cnc3[nH]cc(-c4ccc(O)cc4)c3c2)ccc1O [AE58]
12,1000 to 5000 nM,COc1cc(-c2cnc3[nH]cc(-c4ccccc4OC)c3c2)ccc1O [AE64]
